Reference: ChEMBL document CHEMBL1909046, “DrugMatrix in vitro pharmacology data”

How the values were obtained:
[1] = molecular target: Epidermal growth factor receptor (Homo sapiens, UniProt P00533); assay: DRUGMATRIX: Protein Tyrosine Kinase, EGF Receptor enzyme inhibition (substrate: Poly(Glu:Tyr)); format: cell-based, Insect cells; conditions: insect cells; Not Active = under 50% inhibition at 10 µM
[2] = molecular target: T1, Nitric oxide synthase, inducible (Mus musculus, UniProt P29477); design: species or system Escherichia coli;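 also: inhibition of iNOS enzyme activity measured with L-arginine as substrate; in other assays of this panel Not Active means under 50% inhibition at 10 µM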
T1 sequence (P29477 whole entry): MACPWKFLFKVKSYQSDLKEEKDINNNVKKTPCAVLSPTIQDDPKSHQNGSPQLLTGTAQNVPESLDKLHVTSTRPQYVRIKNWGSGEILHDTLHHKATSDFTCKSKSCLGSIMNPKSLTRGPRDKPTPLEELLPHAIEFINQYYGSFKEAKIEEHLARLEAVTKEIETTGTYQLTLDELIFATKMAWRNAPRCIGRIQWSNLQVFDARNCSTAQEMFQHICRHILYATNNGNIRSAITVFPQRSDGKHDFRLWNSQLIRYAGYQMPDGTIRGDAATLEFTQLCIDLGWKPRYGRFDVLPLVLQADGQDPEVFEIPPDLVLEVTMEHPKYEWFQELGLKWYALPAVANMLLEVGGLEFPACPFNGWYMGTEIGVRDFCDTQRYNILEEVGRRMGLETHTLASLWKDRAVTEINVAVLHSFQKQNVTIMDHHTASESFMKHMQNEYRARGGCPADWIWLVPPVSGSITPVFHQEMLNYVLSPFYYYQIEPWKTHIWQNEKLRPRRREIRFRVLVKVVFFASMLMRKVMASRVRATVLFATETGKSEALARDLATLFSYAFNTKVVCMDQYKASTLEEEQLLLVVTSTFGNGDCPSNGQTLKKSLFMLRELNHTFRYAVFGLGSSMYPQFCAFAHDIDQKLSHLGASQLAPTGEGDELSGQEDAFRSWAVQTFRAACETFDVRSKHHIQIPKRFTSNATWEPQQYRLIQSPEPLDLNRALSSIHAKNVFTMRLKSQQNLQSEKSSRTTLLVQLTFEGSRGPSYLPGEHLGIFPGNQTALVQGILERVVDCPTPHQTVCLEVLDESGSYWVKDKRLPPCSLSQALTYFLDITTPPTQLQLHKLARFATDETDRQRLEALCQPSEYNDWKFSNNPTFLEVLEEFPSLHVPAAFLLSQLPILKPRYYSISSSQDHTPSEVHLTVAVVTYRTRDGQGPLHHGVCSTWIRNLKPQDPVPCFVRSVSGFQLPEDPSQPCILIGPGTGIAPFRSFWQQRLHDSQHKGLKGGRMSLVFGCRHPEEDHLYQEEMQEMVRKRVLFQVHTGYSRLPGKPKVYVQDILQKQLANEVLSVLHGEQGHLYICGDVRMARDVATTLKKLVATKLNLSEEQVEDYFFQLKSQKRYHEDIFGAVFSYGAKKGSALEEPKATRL

[3] = molecular target: T2, Muscarinic acetylcholine receptor M5 (Homo sapiens, UniProt P08912); format: cell membranes, CHO-K1, Membrane; also: in other assays of this panel Not Active means under 50% inhibition at 10 µM
T2 sequence (P08912 whole entry): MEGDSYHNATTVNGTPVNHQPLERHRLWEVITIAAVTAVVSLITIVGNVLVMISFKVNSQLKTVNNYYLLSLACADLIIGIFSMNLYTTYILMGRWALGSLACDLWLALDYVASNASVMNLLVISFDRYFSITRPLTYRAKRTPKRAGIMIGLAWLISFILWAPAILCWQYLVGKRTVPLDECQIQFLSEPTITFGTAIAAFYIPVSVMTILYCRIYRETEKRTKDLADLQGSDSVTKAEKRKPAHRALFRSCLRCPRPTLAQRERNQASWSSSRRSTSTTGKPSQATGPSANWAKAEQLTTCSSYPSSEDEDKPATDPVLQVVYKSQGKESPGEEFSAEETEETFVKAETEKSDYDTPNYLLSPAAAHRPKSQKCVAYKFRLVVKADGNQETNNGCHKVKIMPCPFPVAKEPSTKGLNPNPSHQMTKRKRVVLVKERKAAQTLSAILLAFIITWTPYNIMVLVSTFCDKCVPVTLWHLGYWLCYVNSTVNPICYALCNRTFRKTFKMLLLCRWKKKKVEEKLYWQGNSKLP

[4] = molecular target: T3, Calcitonin receptor (Homo sapiens, UniProt P30988); format: cell membranes, Membrane; conditions: t47d; also: in other assays of this panel Not Active means under 50% inhibition at 10 µM
T3 sequence (P30988 whole entry): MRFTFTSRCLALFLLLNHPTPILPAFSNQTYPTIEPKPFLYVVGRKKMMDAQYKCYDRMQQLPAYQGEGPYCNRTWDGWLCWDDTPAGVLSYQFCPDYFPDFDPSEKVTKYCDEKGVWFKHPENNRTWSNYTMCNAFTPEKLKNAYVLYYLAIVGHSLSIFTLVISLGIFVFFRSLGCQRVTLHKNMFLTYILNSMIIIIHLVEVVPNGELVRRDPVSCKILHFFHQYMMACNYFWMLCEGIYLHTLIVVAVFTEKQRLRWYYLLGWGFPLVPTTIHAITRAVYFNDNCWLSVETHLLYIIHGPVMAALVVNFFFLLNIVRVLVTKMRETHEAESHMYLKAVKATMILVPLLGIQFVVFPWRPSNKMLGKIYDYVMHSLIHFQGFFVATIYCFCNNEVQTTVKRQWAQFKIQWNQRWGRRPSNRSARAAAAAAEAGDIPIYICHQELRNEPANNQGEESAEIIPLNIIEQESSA

[5] = DRUGMATRIX: Phosphodiesterase PDE3 enzyme inhibition (substrate: [3H]cAMP + cAMP); format: tissue-based, Homo sapiens; conditions: platelet; Not Active = under 50% inhibition at 10 µM
[6] = molecular target: Cytochrome P450 2C19 (Homo sapiens, UniProt P33261); conditions: bti-tn-5b1-4; also: in other assays of this panel Not Active means under 50% inhibition at 10 µM
[7] = molecular target: Nitric oxide synthase 1 (Rattus norvegicus, UniProt P29476); format: tissue-based, Cerebellum; also: in other assays of this panel Not Active means under 50% inhibition at 10 µM
Sequence of Nitric oxide synthase 1 (P29476 whole entry): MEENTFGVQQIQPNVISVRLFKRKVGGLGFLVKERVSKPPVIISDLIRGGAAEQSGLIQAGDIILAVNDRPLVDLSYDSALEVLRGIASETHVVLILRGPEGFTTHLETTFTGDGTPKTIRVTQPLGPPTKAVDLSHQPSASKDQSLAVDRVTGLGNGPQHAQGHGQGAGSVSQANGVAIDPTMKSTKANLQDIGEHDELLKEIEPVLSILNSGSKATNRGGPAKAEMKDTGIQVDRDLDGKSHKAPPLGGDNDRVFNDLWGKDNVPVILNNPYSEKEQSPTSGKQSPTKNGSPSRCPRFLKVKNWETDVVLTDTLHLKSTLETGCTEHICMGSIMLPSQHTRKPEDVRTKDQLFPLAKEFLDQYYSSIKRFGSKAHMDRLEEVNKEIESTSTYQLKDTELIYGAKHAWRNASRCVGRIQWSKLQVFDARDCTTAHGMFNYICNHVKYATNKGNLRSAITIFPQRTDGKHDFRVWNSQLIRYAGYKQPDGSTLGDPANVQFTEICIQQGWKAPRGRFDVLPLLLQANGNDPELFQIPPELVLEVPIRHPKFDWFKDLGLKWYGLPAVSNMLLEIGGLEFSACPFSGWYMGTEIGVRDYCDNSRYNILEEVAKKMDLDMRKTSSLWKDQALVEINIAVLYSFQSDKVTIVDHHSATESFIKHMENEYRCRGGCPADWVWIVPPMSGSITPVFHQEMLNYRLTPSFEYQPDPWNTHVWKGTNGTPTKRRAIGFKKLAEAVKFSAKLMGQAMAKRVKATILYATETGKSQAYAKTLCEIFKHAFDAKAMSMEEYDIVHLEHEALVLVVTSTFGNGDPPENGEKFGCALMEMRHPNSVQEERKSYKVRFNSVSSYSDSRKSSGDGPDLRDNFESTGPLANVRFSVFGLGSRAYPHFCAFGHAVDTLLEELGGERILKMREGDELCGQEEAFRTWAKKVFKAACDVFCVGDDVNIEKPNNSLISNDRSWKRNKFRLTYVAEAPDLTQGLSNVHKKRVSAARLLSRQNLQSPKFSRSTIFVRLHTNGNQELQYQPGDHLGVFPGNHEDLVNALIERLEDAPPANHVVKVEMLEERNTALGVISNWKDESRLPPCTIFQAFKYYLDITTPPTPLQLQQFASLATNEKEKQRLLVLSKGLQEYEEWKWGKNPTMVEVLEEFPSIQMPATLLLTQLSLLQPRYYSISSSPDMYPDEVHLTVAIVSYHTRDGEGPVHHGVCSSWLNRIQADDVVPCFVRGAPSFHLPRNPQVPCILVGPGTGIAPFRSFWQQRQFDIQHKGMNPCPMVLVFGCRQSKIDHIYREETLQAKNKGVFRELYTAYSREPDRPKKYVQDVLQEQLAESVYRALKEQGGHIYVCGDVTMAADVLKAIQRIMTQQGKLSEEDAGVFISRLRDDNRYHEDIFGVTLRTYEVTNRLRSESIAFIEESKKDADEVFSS

Sequence of Cytochrome P450 2C19 (P33261 whole entry): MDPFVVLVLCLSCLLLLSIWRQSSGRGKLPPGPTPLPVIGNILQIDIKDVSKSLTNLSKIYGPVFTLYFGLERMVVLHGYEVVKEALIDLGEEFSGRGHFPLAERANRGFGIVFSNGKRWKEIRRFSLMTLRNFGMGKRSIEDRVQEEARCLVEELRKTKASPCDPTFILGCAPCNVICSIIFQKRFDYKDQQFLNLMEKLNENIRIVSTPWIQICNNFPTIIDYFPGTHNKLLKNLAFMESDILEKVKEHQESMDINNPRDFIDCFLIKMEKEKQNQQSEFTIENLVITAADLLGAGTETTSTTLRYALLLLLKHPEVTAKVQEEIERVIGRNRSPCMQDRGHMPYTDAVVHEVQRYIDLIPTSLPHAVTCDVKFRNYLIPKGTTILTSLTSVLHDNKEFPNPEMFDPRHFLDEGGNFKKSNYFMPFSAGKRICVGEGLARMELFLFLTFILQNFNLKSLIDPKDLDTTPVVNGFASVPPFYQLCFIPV
Sequence of Epidermal growth factor receptor (P00533 whole entry): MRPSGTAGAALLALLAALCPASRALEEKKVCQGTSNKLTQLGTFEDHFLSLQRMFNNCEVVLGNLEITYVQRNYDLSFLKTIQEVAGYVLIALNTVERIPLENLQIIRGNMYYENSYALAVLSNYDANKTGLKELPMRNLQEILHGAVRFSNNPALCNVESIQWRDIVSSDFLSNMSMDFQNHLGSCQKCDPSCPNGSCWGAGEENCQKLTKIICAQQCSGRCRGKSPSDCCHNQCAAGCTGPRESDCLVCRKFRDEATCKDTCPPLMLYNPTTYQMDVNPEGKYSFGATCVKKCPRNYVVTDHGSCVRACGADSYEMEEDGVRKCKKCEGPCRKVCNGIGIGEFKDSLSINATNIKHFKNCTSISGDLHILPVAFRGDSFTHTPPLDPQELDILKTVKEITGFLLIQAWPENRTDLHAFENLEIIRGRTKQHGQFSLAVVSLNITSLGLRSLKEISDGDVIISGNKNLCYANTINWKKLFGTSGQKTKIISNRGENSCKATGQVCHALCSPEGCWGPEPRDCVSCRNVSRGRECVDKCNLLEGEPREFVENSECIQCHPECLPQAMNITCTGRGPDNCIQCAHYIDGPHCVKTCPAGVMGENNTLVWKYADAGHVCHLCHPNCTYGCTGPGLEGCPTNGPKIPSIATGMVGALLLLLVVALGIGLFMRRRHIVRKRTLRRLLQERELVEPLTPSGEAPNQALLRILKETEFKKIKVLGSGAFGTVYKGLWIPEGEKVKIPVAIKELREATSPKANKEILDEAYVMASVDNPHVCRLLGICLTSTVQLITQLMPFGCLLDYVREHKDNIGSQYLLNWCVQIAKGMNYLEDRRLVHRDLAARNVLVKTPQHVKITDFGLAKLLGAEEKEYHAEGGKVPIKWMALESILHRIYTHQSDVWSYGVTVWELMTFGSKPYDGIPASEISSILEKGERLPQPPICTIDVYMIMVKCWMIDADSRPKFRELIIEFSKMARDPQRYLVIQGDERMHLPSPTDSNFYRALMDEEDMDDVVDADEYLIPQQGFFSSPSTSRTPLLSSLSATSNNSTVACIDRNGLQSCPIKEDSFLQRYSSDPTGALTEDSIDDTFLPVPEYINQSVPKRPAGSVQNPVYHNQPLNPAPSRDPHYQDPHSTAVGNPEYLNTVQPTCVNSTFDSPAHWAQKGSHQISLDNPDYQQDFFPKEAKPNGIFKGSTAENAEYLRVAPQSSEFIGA

SMILES | IC50 [1] | IC50 [2] | IC50 ([3]; cho-k1) | IC50 [4] | IC50 [5] | Ki [5] | IC50 [6] | Ki [6] | IC50 [7] | IC50 ([3]; read-out: IC50) [nM] | Ki ([3]; read-out: Ki) [nM]
CCCNC(=O)NS(=O)(=O)c1ccc(Cl)cc1 [CHLORPROPAMIDE] | Not Active | Not Active | Not Active | Not Active | Not Active | Not Active | Not Active | Not Active | Not Active | – | –
NS(=O)(=O)c1cc(C2(O)NC(=O)c3ccccc32)ccc1Cl (stereo unspecified) [CHLORTHALIDONE] | Not Active | Not Active | Not Active | Not Active | Not Active | Not Active | Not Active | Not Active | Not Active | – | –
O=C(O)CC(O)(CC(=O)O)C(=O)O [CITRIC ACID] | Not Active | Not Active | Not Active | Not Active | Not Active | Not Active | Not Active | Not Active | Not Active | – | –
CC(C)NCC(O)c1ccccc1Cl (stereo unspecified) [CLORPRENALINE] | Not Active | Not Active | Not Active | Not Active | Not Active | Not Active | Not Active | Not Active | Not Active | – | –
CN1CCN(C(c2ccccc2)c2ccccc2)CC1 [CYCLIZINE] | Not Active | Not Active | – | Not Active | Not Active | Not Active | Not Active | Not Active | Not Active | 633 | 455
CN1C[C@@H]2C[C@H]1CN2c1cc2c(cc1F)c(=O)c(C(=O)O)cn2C1CC1 [DANOFLOXACIN] | Not Active | Not Active | Not Active | Not Active | Not Active | Not Active | Not Active | Not Active | Not Active | – | –
COc1cccc2c1C(=O)c1c(O)c3c(c(O)c1C2=O)C[C@@](O)(C(C)=O)C[C@@H]3O[C@H]1C[C@H](N)[C@H](O)[C@H](C)O1 [DAUNORUBICIN] | Not Active | Not Active | Not Active | Not Active | Not Active | Not Active | Not Active | Not Active | Not Active | – | –
O=C(O)c1cc(-c2ccc(F)cc2F)ccc1O [DIFLUNISAL] | Not Active | Not Active | Not Active | Not Active | Not Active | Not Active | Not Active | Not Active | Not Active | – | –
C[S+](C)[O-] [DIMETHYL SULFOXIDE] | Not Active | Not Active | Not Active | Not Active | Not Active | Not Active | Not Active | Not Active | Not Active | – | –
CC1=NN(c2ccccc2)C(=O)C1 [EDARAVONE] | Not Active | Not Active | Not Active | Not Active | Not Active | Not Active | Not Active | Not Active | Not Active | – | –
